Activity calls are given as the source filed them. The rule behind the calls is not given here.

Assay [1] concerns HEK-293T. In words: Antiproliferative activity against HEK293T cells with high HGPRT expression incubated for 48 hrs by CellTiter-Glo2 assay. As to conditions: Homo sapiens. It is filed as functional, cell-based.
Assay [2] concerns THP-1. In words: Antiproliferative activity against human THP-1 cells with low HGPRT expression incubated for 48 hrs by CellTiter-Glo2 assay. To be noted: THP-1, 48 h. It is filed as functional, cell-based.
In assay [3] the test system is HEK-293T. The assay is described as follows: Effect on p21 mRNA expression in HEK293T cells assessed as increase in labeling efficiency at 100 uM incubated for 16 hrs and measured by TUC-Seq DUAL method. As to conditions: Homo sapiens. It is filed as functional, cell-based.
Assay [4] deals with SK-BR-3. In words: Antiproliferative activity against human SK-BR-3 cells with low HGPRT expression incubated for 48 hrs by CellTiter-Glo2 assay. It is filed as functional, cell-based. As to conditions: SK-BR-3, 48 h.
In assay [5] the test system is K562. In words: Antiproliferative activity against human K562 cells with low HGPRT expression incubated for 48 hrs by CellTiter-Glo2 assay. It is filed as functional, cell-based. To be noted: K562, 48 h.
For assay [6], the system named is SK-BR-3. The assay is described as follows: Drug resistance of human SK-BR-3 cells assessed as percentage of resistant cells at 1 mM. It is filed as functional.
In assay [7] the test system is K562. The assay is described as follows: Downregulation of HGPRT mRNA expression in human K562 cells at 1 mM measured after 48 hrs by qPCR analysis. It is filed as functional, cell-based.
Assay [8] concerns K562. The assay is described as follows: Antiproliferative activity against human K562 cells with low HGPRT expression assessed as cell survival at 1000 uM and incubated for 48 hrs by CellTiter-Glo2 assay. It is filed as functional. As to conditions: read-out: Activity.
Assay [9] concerns SK-BR-3. In words: Downregulation of HGPRT mRNA expression in human SK-BR-3 cells at 1 mM measured after 48 hrs by qPCR analysis. It is filed as functional, cell-based.
Assay [10] can be described thus: Effect on CCNT1 mRNA expression in HEK293T cells assessed as percentage of labeled transcripts at 100 uM incubated for 2 hrs and measured by TUC-Seq DUAL method. It is filed as functional, Homo sapiens, HEK-293T.
Assay [11] can be described thus: Effect on ND1 mRNA expression in HEK293T cells assessed as percentage of labeled transcripts at 100 uM incubated for 2 hrs and measured by TUC-Seq DUAL method. It is filed as functional, Homo sapiens, HEK-293T.
Assay [12] in a line: Effect on p21 mRNA expression in HEK293T cells assessed as percentage of labeled transcripts at 100 uM incubated for 2 hrs and measured by TUC-Seq DUAL method. It is filed as functional, Homo sapiens, HEK-293T.

In the case of `Nc1nc2c(ncn2[C@@H]2O[C@H](COP3(=O)OCc4cc(Cl)ccc4O3)[C@@H](O)[C@H]2O)c(=S)[nH]1` (some centres not stated), the EC50 in [1] stood at 15 µM; in [2], 0.4 µM; in assay [4], 42 µM; in [5] it was 5.6 µM. The result in assay [3] was Active.

Consider `Nc1nc2[nH]cnc2c(=S)[nH]1` [THIOGUANINE], for which the half-maximal effective concentration (EC50) came to 3.6 µM in [1], 0.27 µM in assay [2] and 0.74 µM in assay [5]. Besides, in [6], the Activity is given as 40%. The outcome in assay [7] and in [9] was Active. Moreover, in assay [8], the viability at 1000 µM came to 15%.

Take `Nc1nc(=S)c2ncn([C@@H]3O[C@H](CO)[C@@H](O)[C@H]3O)c2[nH]1` [THIOGUANOSINE]: the EC50 came out at 4.7 µM in [1], 0.35 µM in assay [2] and 1.3 µM in assay [5]. The Activity in assay [10], in [11] and in [12] was 2.5% each time.

In the case of `CCC(CC)COC(=O)[C@H](C)NP(=O)(OC[C@H]1O[C@@H](n2cnc3c(=S)[nH]c(N)nc32)[C@H](O)[C@@H]1O)Oc1ccccc1` (some centres not stated), the values for the half-maximal effective concentration (EC50) in assay [2] and in [5] were 33 µM and 92 µM, respectively.

`Nc1nc2c(ncn2[C@@H]2O[C@H](COP3(=O)OCc4ccccc4O3)[C@@H](O)[C@H]2O)c(=S)[nH]1` (some centres not stated): the half-maximal effective concentration (EC50) in assay [1] turned out to be 14 µM; in assay [2] it was 1.4 µM; in assay [4], 25 µM; in assay [5], 7.2 µM. Besides, the result in assay [3] was Active.

As to `CC(C)(C)C(=O)SCCOP(=O)(OCCSC(=O)C(C)(C)C)OC[C@H]1O[C@@H](n2cnc3c(=S)[nH]c(N)nc32)[C@H](O)[C@@H]1O`, the EC50 in [1] worked out at 246 µM; in assay [2], 8.4 µM; in assay [5], 62 µM.

Consider `CC(=O)Oc1ccc(COP(=O)(O)OC[C@H]2O[C@@H](n3cnc4c(=S)[nH]c(N)nc43)[C@H](O)[C@@H]2O)cc1`, for which the 50% effective concentration (EC50) in [1] worked out at 6.9 µM; in [2], 0.67 µM; in assay [4] it was 201 µM; in [5], 2.3 µM. Besides, the result in [3] was Active.

Consider `CC(=O)Oc1ccc(COP(=O)(OCc2ccc(OC(C)=O)cc2)OC[C@H]2O[C@@H](n3cnc4c(SCc5ccc(OC(C)=O)cc5)nc(N)nc43)[C@H](O)[C@@H]2O)cc1`, for which the EC50 in assay [1] was 6.7 µM; in [2], 0.34 µM; in assay [4], 3.5 µM; in assay [5] it was 2.6 µM.

These data come from ChEMBL document CHEMBL5214997, “6-Thioguanosine Monophosphate Prodrugs Display Enhanced Performance against Thiopurine-Resistant Leukemia and Breast Cancer Cells” (J Med Chem, 2022).
